Test results published in ChEMBL document CHEMBL4219190, “Studies on synthesis of novel pyrido[2,3-d]pyrimidine derivatives, evaluation of their antimicrobial activity and molecular docking” (Bioorg Med Chem Lett, 2018).
In brackets after ≈: the same amount, converted by molar mass. Activity calls are given as the source filed them. No cut-off for these calls is given here.

What was measured:
Candida albicans [1] = test: Fungicidal activity against Candida albicans MTCC 183 incubated for 24 hrs followed by transfer of microbial suspension to Sabouraud dextrose agar plates and measured after 24 hrs post transfer; assay type: functional; conditions: MTCC 183, 24 h
Pichia sporocuriosa [2] = test: Antifungal activity against Issatchenkia hanoiensis MTCC 4755 after 24 hrs by well diffusion method; assay type: functional; conditions: MTCC 4755, 24 h
Candida albicans [3] = test: Antifungal activity against Candida albicans MTCC 227 after 24 hrs by well diffusion method; assay type: functional; conditions: MTCC 227, 24 h
Micrococcus luteus [4] = test: Bactericidal activity against Micrococcus luteus MTCC 2470 incubated for 24 hrs followed by transfer of microbial suspension to Mueller Hinton agar plates and measured after 24 hrs post transfer; assay type: functional; conditions: MTCC 2470, 24 h
Candida parapsilosis [5] = test: Fungicidal activity against Candida parapsilosis MTCC 1744 incubated for 24 hrs followed by transfer of microbial suspension to Sabouraud dextrose agar plates and measured after 24 hrs post transfer; assay type: functional; conditions: Lodderomyces parapsilosis, MTCC 1744, 24 h
Candida albicans [6] = test: Antifungal activity against Candida albicans MTCC 4748 after 24 hrs by well diffusion method; assay type: functional
Nakaseomyces glabratus [7] = test: Antifungal activity against Candida glabrata MTCC 3019 after 24 hrs by well diffusion method; assay type: functional; conditions: MTCC 3019, 24 h
Candida albicans [8] = test: Antifungal activity against Candida albicans MTCC 3017 after 24 hrs by well diffusion method; assay type: functional; conditions: MTCC 3017, 24 h
Staphylococcus aureus [9] = test: Bactericidal activity against Staphylococcus aureus MLS16 MTCC 2940 incubated for 24 hrs followed by transfer of microbial suspension to Mueller Hinton agar plates and measured after 24 hrs post transfer; assay type: functional; conditions: MLS16 MTCC 2940, 24 h
Staphylococcus aureus [10] = test: Bactericidal activity against Staphylococcus aureus MTCC 96 incubated for 24 hrs followed by transfer of microbial suspension to Mueller Hinton agar plates and measured after 24 hrs post transfer; assay type: functional; conditions: MTCC 96, 24 h
Raoultella planticola [11] = test: Bactericidal activity against Klebsiella planticola MTCC 530 incubated for 24 hrs followed by transfer of microbial suspension to Mueller Hinton agar plates and measured after 24 hrs post transfer; assay type: functional; conditions: MTCC 530, 24 h
[Candida] aaseri [12] = Antifungal activity against Candida aaseri MTCC 1962 after 24 hrs by well diffusion method; assay type: functional; conditions: Yamadazyma aaseri, MTCC 1962, 24 h
Escherichia coli [13] = test: Bactericidal activity against Escherichia coli MTCC 739 incubated for 24 hrs followed by transfer of microbial suspension to Mueller Hinton agar plates and measured after 24 hrs post transfer; assay type: functional; conditions: MTCC 739, 24 h
Candida albicans [14] = test: Antifungal activity against Candida albicans MTCC 1637 after 24 hrs by well diffusion method; assay type: functional; conditions: MTCC 1637, 24 h
Candida albicans [15] = test: Fungicidal activity against Candida albicans MTCC 3017 incubated for 24 hrs followed by transfer of microbial suspension to Sabouraud dextrose agar plates and measured after 24 hrs post transfer; assay type: functional; conditions: MTCC 3017, 24 h
Nakaseomyces glabratus [16] = test: Fungicidal activity against Candida glabrata MTCC 3019 incubated for 24 hrs followed by transfer of microbial suspension to Sabouraud dextrose agar plates and measured after 24 hrs post transfer; assay type: functional; conditions: MTCC 3019, 24 h
Staphylococcus aureus [17] = test: Antibiofilm activity against Staphylococcus aureus MTCC 96 after 24 hrs by crystal violet staining-based assay; assay type: functional, organism-based; conditions: Staphylococcus aureus, MTCC 96, 24 h; read-out: IC50
Candida albicans [18] = test: Fungicidal activity against Candida albicans MTCC 854 incubated for 24 hrs followed by transfer of microbial suspension to Sabouraud dextrose agar plates and measured after 24 hrs post transfer; assay type: functional; conditions: MTCC 854, 24 h
Candida albicans [19] = test: Antifungal activity against Candida albicans MTCC 183 after 24 hrs by well diffusion method; assay type: functional; conditions: MTCC 183, 24 h
Candida albicans [20] = test: Fungicidal activity against Candida albicans MTCC 7315 incubated for 24 hrs followed by transfer of microbial suspension to Sabouraud dextrose agar plates and measured after 24 hrs post transfer; assay type: functional; conditions: MTCC 7315, 24 h
Candida albicans [21] = test: Fungicidal activity against Candida albicans MTCC 3958 incubated for 24 hrs followed by transfer of microbial suspension to Sabouraud dextrose agar plates and measured after 24 hrs post transfer; assay type: functional
Candida albicans [22] = test: Antifungal activity against Candida albicans MTCC 854 after 24 hrs by well diffusion method; assay type: functional; conditions: MTCC 854, 24 h
Staphylococcus aureus [23] = test: Antibacterial activity against Staphylococcus aureus MTCC 96 after 24 hrs by well diffusion method; assay type: functional; conditions: MTCC 96, 24 h
Candida albicans [24] = test: Antifungal activity against Candida albicans MTCC 7315 after 24 hrs by well diffusion method; assay type: functional; conditions: MTCC 7315, 24 h
Candida albicans [25] = test: Antifungal activity against Candida albicans MTCC 3958 after 24 hrs by well diffusion method; assay type: functional
Candida albicans [26] = test: Fungicidal activity against Candida albicans MTCC 227 incubated for 24 hrs followed by transfer of microbial suspension to Sabouraud dextrose agar plates and measured after 24 hrs post transfer; assay type: functional; conditions: MTCC 227, 24 h
Candida albicans [27] = test: Fungicidal activity against Candida albicans MTCC 1637 incubated for 24 hrs followed by transfer of microbial suspension to Sabouraud dextrose agar plates and measured after 24 hrs post transfer; assay type: functional; conditions: MTCC 1637, 24 h
Pichia kudriavzevii [28] = test: Fungicidal activity against Candida krusei MTCC 3020 incubated for 24 hrs followed by transfer of microbial suspension to Sabouraud dextrose agar plates and measured after 24 hrs post transfer; assay type: functional
Candida parapsilosis [29] = test: Antifungal activity against Candida parapsilosis MTCC 1744 after 24 hrs by well diffusion method; assay type: functional; conditions: MTCC 1744, 24 h
Escherichia coli [30] = test: Antibacterial activity against Escherichia coli MTCC 739 after 24 hrs by well diffusion method; assay type: functional; conditions: MTCC 739, 24 h
Pichia kudriavzevii [31] = test: Antifungal activity against Candida krusei MTCC 3020 after 24 hrs by well diffusion method; assay type: functional
Staphylococcus aureus [32] = test: Antibacterial activity against Staphylococcus aureus MLS16 MTCC 2940 after 24 hrs by well diffusion method; assay type: functional; conditions: MLS16 MTCC 2940, 24 h
Raoultella planticola [33] = test: Antibiofilm activity against Klebsiella planticola MTCC 530 after 24 hrs by crystal violet staining-based assay; assay type: functional, organism-based; conditions: Klebsiella planticola, MTCC 530, 24 h; read-out: IC50
Candida albicans [34] = test: Fungicidal activity against Candida albicans MTCC 4748 incubated for 24 hrs followed by transfer of microbial suspension to Sabouraud dextrose agar plates and measured after 24 hrs post transfer; assay type: functional
Staphylococcus aureus [35] = test: Antibiofilm activity against Staphylococcus aureus MLS16 MTCC 2940 after 24 hrs by crystal violet staining-based assay; assay type: functional, organism-based; conditions: Staphylococcus aureus, MLS16 MTCC 2940, 24 h; read-out: IC50
Bacillus subtilis [36] = test: Bactericidal activity against Bacillus subtilis MTCC 121 incubated for 24 hrs followed by transfer of microbial suspension to Mueller Hinton agar plates and measured after 24 hrs post transfer; assay type: functional; conditions: MTCC 121, 24 h
Micrococcus luteus [37] = test: Antibacterial activity against Micrococcus luteus MTCC 2470 after 24 hrs by well diffusion method; assay type: functional; conditions: MTCC 2470, 24 h
Pseudomonas aeruginosa [38] = test: Antibiofilm activity against Pseudomonas aeruginosa MTCC 2453 after 24 hrs by crystal violet staining-based assay; assay type: functional, organism-based; conditions: Pseudomonas aeruginosa, MTCC 2453, 24 h; read-out: IC50
Pseudomonas aeruginosa [39] = test: Bactericidal activity against Pseudomonas aeruginosa MTCC 2453 incubated for 24 hrs followed by transfer of microbial suspension to Mueller Hinton agar plates and measured after 24 hrs post transfer; assay type: functional; conditions: MTCC 2453, 24 h
Raoultella planticola [40] = test: Antibacterial activity against Klebsiella planticola MTCC 530 after 24 hrs by well diffusion method; assay type: functional; conditions: MTCC 530, 24 h
Candida albicans [41] = test: Fungicidal activity against Candida albicans MTCC 3018 incubated for 24 hrs followed by transfer of microbial suspension to Sabouraud dextrose agar plates and measured after 24 hrs post transfer; assay type: functional
Bacillus subtilis [42] = test: Antibacterial activity against Bacillus subtilis MTCC 121 after 24 hrs by well diffusion method; assay type: functional; conditions: MTCC 121, 24 h
Candida albicans [43] = test: Antifungal activity against Candida albicans MTCC 3018 after 24 hrs by well diffusion method; assay type: functional
Bacillus subtilis [44] = test: Antibiofilm activity against Bacillus subtilis MTCC 121 after 24 hrs by crystal violet staining-based assay; assay type: functional, organism-based; conditions: Bacillus subtilis, MTCC 121, 24 h; read-out: IC50
[Candida] aaseri [45] = Fungicidal activity against Candida aaseri MTCC 1962 incubated for 24 hrs followed by transfer of microbial suspension to Sabouraud dextrose agar plates and measured after 24 hrs post transfer; assay type: functional; conditions: Yamadazyma aaseri, MTCC 1962, 24 h
Pseudomonas aeruginosa [46] = test: Antibacterial activity against Pseudomonas aeruginosa MTCC 2453 after 24 hrs by well diffusion method; assay type: functional; conditions: MTCC 2453, 24 h
Pichia sporocuriosa [47] = test: Fungicidal activity against Issatchenkia hanoiensis MTCC 4755 incubated for 24 hrs followed by transfer of microbial suspension to Sabouraud dextrose agar plates and measured after 24 hrs post transfer; assay type: functional; conditions: MTCC 4755, 24 h

- MIC (Pichia sporocuriosa [2]): 15.6 µg/mL (≈ 30.7 µM)
- MIC (Candida albicans [3]): 7.8 µg/mL (≈ 15.4 µM)
- MIC (Candida albicans [6]): inactive
- MIC (Nakaseomyces glabratus [7]): 15.6 µg/mL (≈ 30.7 µM)
- MIC (Candida albicans [8]): 3.9 µg/mL (≈ 7.68 µM)
- MIC ([Candida] aaseri [12]): 31.2 µg/mL (≈ 61.5 µM)
- MIC (Candida albicans [14]): 15.6 µg/mL (≈ 30.7 µM)
- IC50 (Staphylococcus aureus [17]): 2.7 µg/mL (≈ 5.32 µM)
- MIC (Candida albicans [19]): 3.9 µg/mL (≈ 7.68 µM)
- MIC (Candida albicans [22]): 7.8 µg/mL (≈ 15.4 µM)
- MIC (Staphylococcus aureus [23]): 7.8 µg/mL (≈ 15.4 µM)
- MIC (Candida albicans [24]): 62.5 µg/mL (≈ 123 µM)
- MIC (Candida albicans [25]): inactive
- MIC (Candida parapsilosis [29]): 31.2 µg/mL (≈ 61.5 µM)
- MIC (Escherichia coli [30]): 15.6 µg/mL (≈ 30.7 µM)
- MIC (Pichia kudriavzevii [31]): inactive
- MIC (Staphylococcus aureus [32]): 15.6 µg/mL (≈ 30.7 µM)
- IC50 (Staphylococcus aureus [35]): 10.8 µg/mL (≈ 21.3 µM)
- MIC (Micrococcus luteus [37]): 15.6 µg/mL (≈ 30.7 µM)
- IC50 (Pseudomonas aeruginosa [38]): 10.8 µg/mL (≈ 21.3 µM)
- MIC (Bacillus subtilis [42]): 31.2 µg/mL (≈ 61.5 µM)
- MIC (Candida albicans [43]): inactive
- IC50 (Bacillus subtilis [44]): 21.6 µg/mL (≈ 42.6 µM)
- MIC (Pseudomonas aeruginosa [46]): 15.6 µg/mL (≈ 30.7 µM)
Structure (SMILES): O=C(c1nc(-c2ccccc2)c2c(C(F)(F)F)cc(-c3ccccc3)nc2n1)N1CCN(CCO)CC1
- MFC (Candida albicans [1]): 7.8 µg/mL (≈ 15.4 µM)
- MBC (Micrococcus luteus [4]): 31.2 µg/mL (≈ 61.5 µM)
- MFC (Candida parapsilosis [5]): 62.5 µg/mL (≈ 123 µM)
- MBC (Staphylococcus aureus [9]): 31.2 µg/mL (≈ 61.5 µM)
- MBC (Staphylococcus aureus [10]): 15.6 µg/mL (≈ 30.7 µM)
- MBC (Raoultella planticola [11]): 31.2 µg/mL (≈ 61.5 µM)
- MBC (Escherichia coli [13]): 31.2 µg/mL (≈ 61.5 µM)
- MFC (Candida albicans [15]): 7.8 µg/mL (≈ 15.4 µM)
- MFC (Nakaseomyces glabratus [16]): 31.2 µg/mL (≈ 61.5 µM)
- MFC (Candida albicans [18]): 15.6 µg/mL (≈ 30.7 µM)
- MFC (Candida albicans [20]): 62.5 µg/mL (≈ 123 µM)
- MFC (Candida albicans [21]): inactive
- MFC (Candida albicans [26]): 15.6 µg/mL (≈ 30.7 µM)
- MFC (Candida albicans [27]): 31.2 µg/mL (≈ 61.5 µM)
- MFC (Pichia kudriavzevii [28]): inactive
- IC50 (Raoultella planticola [33]): 5.4 µg/mL (≈ 10.6 µM)
- MFC (Candida albicans [34]): inactive
- MBC (Bacillus subtilis [36]): 31.2 µg/mL (≈ 61.5 µM)
- MBC (Pseudomonas aeruginosa [39]): 31.2 µg/mL (≈ 61.5 µM)
- MIC (Raoultella planticola [40]): 15.6 µg/mL (≈ 30.7 µM)
- MFC (Candida albicans [41]): inactive
- MFC ([Candida] aaseri [45]): 62.5 µg/mL (≈ 123 µM)
- MFC (Pichia sporocuriosa [47]): 31.2 µg/mL (≈ 61.5 µM)
